# Data taken from PubChem BioAssay AID248 (DTP/NCI, 2004).
# “And” between values parts separate entries of the source, which are not always exact repeats. Equal values may be shown once. Inconclusive results and toxic doses are left out.
# Test system: L1210 leukemia ip in BDF1 mice, survival T/C
# Assay: NCI In Vivo Anticancer Drug Screen. Data for tumor model L1210 Leukemia (intraperitoneal) in B6D2F1 (BDF1) mice
# Settings: endpoint: mean survival time, higher = longer survival
# Procedure, shortened: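 Value reflects the ratio of survival in compound-treated mice to survival in vehicle-treated controls, with both groups carrying the same transplanted tumor.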
# [1] = dose: 100.0 mg/kg/injection, schedule: Q01DX009 (ip), vehicle: Klucel (hydroxypropylcellulose) (HPC)
# [2] = dose: 100.0 mg/kg/injection, schedule: Q04DX003 (ip), vehicle: saline
# [3] = dose: 200.0 mg/kg/injection, schedule: Q01DX009 (ip), vehicle: Klucel (hydroxypropylcellulose) (HPC)
# [4] = dose: 200.0 mg/kg/injection, schedule: Q04DX003 (ip), vehicle: saline
# [5] = dose: 400.0 mg/kg/injection, schedule: Q01DX009 (ip), vehicle: Klucel (hydroxypropylcellulose) (HPC)
# [6] = dose: 100.0 mg/kg/injection, schedule: Q04DX003 (ip), vehicle: saline with Tween-80
# [7] = dose: 200.0 mg/kg/injection, schedule: Q04DX003 (ip), vehicle: saline with Tween-80
# [8] = dose: 400.0 mg/kg/injection, schedule: Q04DX003 (ip), vehicle: saline with Tween-80
# [9] = dose: 100.0 mg/kg/injection, schedule: Q04DX003 (ip), vehicle: Klucel (hydroxypropylcellulose) (HPC)
# [10] = dose: 200.0 mg/kg/injection, schedule: Q04DX003 (ip), vehicle: Klucel (hydroxypropylcellulose) (HPC)
# [11] = dose: 400.0 mg/kg/injection, schedule: Q04DX003 (ip), vehicle: Klucel (hydroxypropylcellulose) (HPC)
# [12] = dose: 12.5 mg/kg/injection, schedule: Q04DX003 (ip), vehicle: saline
# [13] = dose: 25.0 mg/kg/injection, schedule: Q04DX003 (ip), vehicle: saline
# [14] = dose: 100.0 mg/kg/injection, schedule: Q01DX001 (ip), vehicle: saline
# [15] = dose: 200.0 mg/kg/injection, schedule: Q01DX001 (ip), vehicle: saline
# [16] = dose: 400.0 mg/kg/injection, schedule: Q01DX001 (ip), vehicle: saline
smiles,measurement,setting,value
CCCCCCOc1ccc(CC(N)C(=O)O)cc1N(CCCl)CCCl (centres undefined),T/C,"dose: 2.5 mg/kg/injection, schedule: Q01DX009 (ip), vehicle: carboxymethylcellulose (CMC)",119 % of control
same,T/C,"dose: 4.4 mg/kg/injection, schedule: Q01DX001 (ip), vehicle: carboxymethylcellulose (CMC)",109 % of control
same,T/C,"dose: 6.6 mg/kg/injection, schedule: Q01DX001 (ip), vehicle: carboxymethylcellulose (CMC)",115 % of control
same,T/C,"dose: 8.5 mg/kg/injection, schedule: Q01DX001 (ip), vehicle: carboxymethylcellulose (CMC)",117 % of control
same,T/C,"dose: 10.0 mg/kg/injection, schedule: Q01DX001 (ip), vehicle: carboxymethylcellulose (CMC)",110 % of control
same,T/C,"dose: 13.0 mg/kg/injection, schedule: Q01DX001 (ip), vehicle: carboxymethylcellulose (CMC)",117 % of control
same,T/C,"dose: 15.0 mg/kg/injection, schedule: Q01DX001 (ip), vehicle: carboxymethylcellulose (CMC)",116 % of control
same,T/C,"dose: 15.0 mg/kg/injection, schedule: Q01DX009 (ip), vehicle: carboxymethylcellulose (CMC)",152 % of control
same,T/C,"dose: 20.0 mg/kg/injection, schedule: Q01DX001 (ip), vehicle: carboxymethylcellulose (CMC)",122 % of control
same,T/C,"dose: 22.5 mg/kg/injection, schedule: Q01DX009 (ip), vehicle: carboxymethylcellulose (CMC)",113 % of control
same,T/C,"dose: 30.0 mg/kg/injection, schedule: Q01DX001 (ip), vehicle: carboxymethylcellulose (CMC)",122 % of control
N#CSC1CSC(SC2=NC(SC#N)CS2)=N1 (centres undefined),T/C,[1],94 % of control
same,T/C,[2],98 % of control
same,T/C,[3],104 % of control
same,T/C,[4],92 % of control
CC(=O)c1nnn(-c2ccccc2)n1,T/C,"dose: 100.0 mg/kg/injection, schedule: Q01DX001 (ip), vehicle: other",95 % of control and 109 % of control
same,T/C,"dose: 200.0 mg/kg/injection, schedule: Q01DX001 (ip), vehicle: other",95 % of control and 101 % of control
same,T/C,"dose: 400.0 mg/kg/injection, schedule: Q01DX001 (ip), vehicle: other",101 % of control
O=C(c1ccccc1)C1CCC1,T/C,[1],92 % of control
same,T/C,[2],101 % of control
same,T/C,[3],98 % of control
same,T/C,[4],97 % of control
same,T/C,[5],92 % of control
same,T/C,"dose: 400.0 mg/kg/injection, schedule: Q04DX003 (ip), vehicle: saline",97 % of control
CN(C)C(=S)SSSC(=S)N(C)C,T/C,"dose: 25.0 mg/kg/injection, schedule: Q04DX002 (ip), vehicle: Klucel (hydroxypropylcellulose) (HPC)",101 % of control
same,T/C,"dose: 50.0 mg/kg/injection, schedule: Q04DX002 (ip), vehicle: Klucel (hydroxypropylcellulose) (HPC)",94 % of control
same,T/C,"dose: 100.0 mg/kg/injection, schedule: Q04DX002 (ip), vehicle: Klucel (hydroxypropylcellulose) (HPC)",93 % of control and 105 % of control
Nc1ccc2[nH]ncc2c1,T/C,[6],102 % of control
same,T/C,[7],102 % of control
same,T/C,[8],110 % of control
O=C1CC=Nc2ccc([N+](=O)[O-])cc21,T/C,[1],101 % of control
same,T/C,[9],98 % of control
same,T/C,[3],97 % of control
same,T/C,[10],109 % of control
same,T/C,[5],101 % of control
same,T/C,[11],108 % of control
CCC(C)C(CN)(CCN(C)C)Cc1cccc2ccccc12 (centres undefined),T/C,[12],93 % of control
same,T/C,[13],96 % of control
same,T/C,"dose: 50.0 mg/kg/injection, schedule: Q04DX003 (ip), vehicle: saline",101 % of control
CCCNC1=C(N2CC2)C(=O)C(NCCC)=C(N2CC2)C1=O,T/C,"dose: 0.09 mg/kg/injection, schedule: Q04DX003 (ip), vehicle: saline",96 % of control and 109 % of control
same,T/C,"dose: 0.18 mg/kg/injection, schedule: Q04DX003 (ip), vehicle: saline",97 % of control and 106 % of control
same,T/C,"dose: 0.37 mg/kg/injection, schedule: Q01DX001 (ip), vehicle: saline",108 % of control
same,T/C,"dose: 0.37 mg/kg/injection, schedule: Q04DX003 (ip), vehicle: saline",100 % of control and 103 % of control
same,T/C,"dose: 0.39 mg/kg/injection, schedule: Q01DX009 (ip), vehicle: saline",95 % of control and 102 % of control
same,T/C,"dose: 0.75 mg/kg/injection, schedule: Q01DX001 (ip), vehicle: saline",108 % of control
same,T/C,"dose: 0.75 mg/kg/injection, schedule: Q04DX003 (ip), vehicle: saline",105 % of control and 108 % of control
same,T/C,"dose: 0.78 mg/kg/injection, schedule: Q01DX009 (ip), vehicle: saline",107 % of control and 118 % of control
same,T/C,"dose: 1.5 mg/kg/injection, schedule: Q01DX001 (ip), vehicle: saline",117 % of control
same,T/C,"dose: 1.5 mg/kg/injection, schedule: Q04DX003 (ip), vehicle: saline",100 % of control
same,T/C,"dose: 1.56 mg/kg/injection, schedule: Q01DX009 (ip), vehicle: saline",107 % of control and 116 % of control
same,T/C,"dose: 1.56 mg/kg/injection, schedule: Q04DX003 (ip), vehicle: saline",103 % of control
same,T/C,"dose: 3.0 mg/kg/injection, schedule: Q01DX001 (ip), vehicle: saline",118 % of control
same,T/C,"dose: 3.0 mg/kg/injection, schedule: Q04DX003 (ip), vehicle: saline",118 % of control and 120 % of control
same,T/C,"dose: 3.12 mg/kg/injection, schedule: Q04DX003 (ip), vehicle: saline",93 % of control
same,T/C,"dose: 6.0 mg/kg/injection, schedule: Q01DX001 (ip), vehicle: saline",90 % of control
same,T/C,"dose: 6.25 mg/kg/injection, schedule: Q04DX003 (ip), vehicle: saline",98 % of control
same,T/C,"dose: 12.0 mg/kg/injection, schedule: Q01DX001 (ip), vehicle: saline",110 % of control
same,T/C,[12],115 % of control
same,T/C,[13],113 % of control
O=C(N/N=C/c1ccc(O)cc1O)C(O)(c1ccccc1)c1ccccc1,T/C,"dose: 100.0 mg/kg/injection, schedule: Q01DX001 (ip), vehicle: carboxymethylcellulose (CMC)",106 % of control
same,T/C,"dose: 200.0 mg/kg/injection, schedule: Q01DX001 (ip), vehicle: carboxymethylcellulose (CMC)",106 % of control
same,T/C,"dose: 400.0 mg/kg/injection, schedule: Q01DX001 (ip), vehicle: carboxymethylcellulose (CMC)",108 % of control
CC(C)(O)C/C=C/c1ccccc1,T/C,[6],103 % of control
same,T/C,[7],103 % of control
same,T/C,[8],106 % of control
Cc1cc2cc3n(c2nn1)N=CCC3,T/C,"dose: 100.0 mg/kg/injection, schedule: Q04DX002 (ip), vehicle: saline",106 % of control
same,T/C,"dose: 200.0 mg/kg/injection, schedule: Q04DX002 (ip), vehicle: saline",103 % of control
Cc1ccccc1SCC(N)=O,T/C,[9],91 % of control
same,T/C,[10],98 % of control
same,T/C,[11],107 % of control
CC1C(OC(=O)Cc2ccccc2)=CCC2C1(C)CCC1C2(C)CCC2(C)C3CC(C)(C)CCC3(C)CCC12C (centres undefined),T/C,[14],98 % of control
same,T/C,[15],104 % of control
same,T/C,[16],104 % of control
O=C1CCC([N+](=O)[O-])C(c2ccc3ccccc3c2)N1 (centres undefined),T/C,"dose: 100.0 mg/kg/injection, schedule: Q01DX001 (ip), vehicle: saline with Tween-80",95 % of control
same,T/C,"dose: 200.0 mg/kg/injection, schedule: Q01DX001 (ip), vehicle: saline with Tween-80",95 % of control
same,T/C,"dose: 400.0 mg/kg/injection, schedule: Q01DX001 (ip), vehicle: saline with Tween-80",95 % of control
N#CC1c2cc(OC(=O)c3ccccc3)ccc2C=CN1C(=O)c1ccccc1 (centres undefined),T/C,"dose: 100.0 mg/kg/injection, schedule: Q04DX003 (ip), vehicle: gum acacia",89 % of control
same,T/C,"dose: 200.0 mg/kg/injection, schedule: Q04DX003 (ip), vehicle: gum acacia",89 % of control
CCCCC=C(C1CCCCC1)C1CCCCC1,T/C,"dose: 75.0 mg/kg/injection, schedule: Q01DX001 (ip), vehicle: saline",104 % of control
same,T/C,"dose: 75.0 mg/kg/injection, schedule: Q04DX003 (ip), vehicle: saline",92 % of control
same,T/C,"dose: 150.0 mg/kg/injection, schedule: Q01DX001 (ip), vehicle: saline",93 % of control
same,T/C,"dose: 150.0 mg/kg/injection, schedule: Q04DX003 (ip), vehicle: saline",101 % of control
same,T/C,"dose: 300.0 mg/kg/injection, schedule: Q01DX001 (ip), vehicle: saline",91 % of control
same,T/C,"dose: 300.0 mg/kg/injection, schedule: Q04DX003 (ip), vehicle: saline",100 % of control
CCOC(=O)N1CCC(=C(C#N)c2ccccc2)CC1,T/C,[9],92 % of control
same,T/C,[10],92 % of control
CCOC(=O)C1C(=O)N(O)c2cnccc21 (centres undefined),T/C,[14],107 % of control
same,T/C,[15],107 % of control
same,T/C,[16],88 % of control
